Laboratory results taken from patent US20200339544A1 (JOINT STOCK COMPANY "BIOCAD", priority 2017, published 2020).
Where two headings read alike, the source gives them in different places.

Columns and labels:
WT EGFR (Wild-Type EGFR) = target: T1, WT EGFR (Wild-Type EGFR) (Homo sapiens, UniProt P00533); assay: Inhibition of WT EGFR kinase activity (ADP-Glo); assay type: biochemical
T1 construct: purchased SignalChem
Experimental: (§1) To assess IC50 values of the compounds disclosed herein, a biochemical assay of inhibition of kinase activity in a non-cellular system and a functional cellular anti-proliferation assay were used.
(§2) To assess inhibition of WT EGFR (Wild-Type EGFR), DM EGFR (DoubleMutantEGFR, L828R/T790M) kinase activity, SignalChem kinase system and ADP-Glo™ Kinase Assay (V9102, Promega) detection kit were used.
(§3) The measurements were carried out in a 25 μL reaction volume using a 96-well plate. […] The solution of 0.5 mg/mL peptide substrate and 50 μM ATP in the same buffer were added; the solution was incubated for 180 minutes at 37° C. To detect the amount of ATP taken up during the kinase reaction, the ADP Glo Detection Kit (V9102, Promega) was used. The luminescence was measured with the Infinite M200Pro plate spectrophotometer (Tecan, Switzerland). IC50 values were calculated using Magellan 7.2 software (Tecan, Switzerland) approximating experimental points by four-parameter logistic model with the optimization by Levenberg-Marquardt (Table 14).

[1] = test system: A549 (lung adenocarcinoma, WT); assay: Antiproliferative activity on A549 cells (Alamar Blue); assay type: cell-based; settings: Homo sapiens, antiproliferative test
Experimental: (§4) Antiproliferative activity of EGFR inhibitors (Tables 15 and 16) was measured in cell-based bioassay on continuous epithelial cell cultures: A549 (lung adenocarcinoma, ATCC® CRM-CCL-185™—WT), HCC827 (lung adenocarcinoma, ATCC® CRL-2868™—SM (SingleMutantEGFR, exon19delE746-A750)) and H1975 (lung adenocarcinoma, ATCC® CRL-5908™—DM (DoubleMutantEGFR, L828R/T790M)) using cell viability reagent Alamar Blue (ThermoFisher, # DAL1100). Cells were cultured in 10% FBS-supplemented (Gibco, #16140071) RPMI-1640 (PanEco, S330p) for at least 1 passage after thawing, washed with PBS and passaged in 96-well culture plates (3599, Corning) with RPMI-1640 growth medium supplemented with 2% FBS in an amount of 5*10^3 cells/well for A549, 10*10^3 cells/well for HCC827 and 15*10^3 cells/well for H1975 in 100 μL, and incubated at 37° C. in an incubator (Thermo Forma, USA) under 5% of CO2 for 16-18 h for cell attachment.
(§5) The test compounds were dissolved in DMSO in the selected range of concentrations and transferred to RPMI-1640 medium (PanEco, S330p) supplemented with 2% FBS. After adding 50 μl of the prepared dilutions to the cells, the incubation mixture contained the final concentrations of the test substances and no more than 1% DMSO. The plates were Incubated at 37° C. for 72 h. After incubation, 15 μl of Alamar Blue vital dye (ThermoFisher, # DAL1100) was added to each well. The plates were shaken on an orbital shaker (Biosan, Latvia) and further incubated for 3-5 h in a CO2 incubator (Thermo Forma, USA). Number of living cells was estimated using a plate spectrophotometer Infinite M200Pro, (Tecan, Switzerland) measuring fluorescent signal at the excitation wavelength (λEx) of 540 nm and emission wavelength (λEm) of 590 nm.
IC50 was calculated using Magellan 7.2 software (Tecan, Switzerland) approximating experimental points by four-parameter logistic model with the optimization by Levenberg-Marquardt.
(§6) The ratio between IC50 for cell lines containing wild-type EGFR (A549) and IC50 for cell lines containing target mutation L828R/T790M (H1975) is the selectivity index (SI): […]

[2] = test system: H1975 (lung adenocarcinoma, DM, L828R/T790M); assay: Antiproliferative activity on H1975 cells (Alamar Blue); assay type: cell-based; settings: for IC50: Homo sapiens, NCI-H1975, H1975 cells; for SI IC50(A549)/IC50(DM): selectivity index, A549 vs H1975 cells
Experimental: as §4, §5
IC50 was calculated using Magellan 7.2 software (Tecan, Switzerland) approximating experimental points by four-parameter logistic model with the optimization by Levenberg-Marquardt. […]
as §6

[3] = Enzyme stability in human liver S9 fractions; assay type: in vitro ADME; settings: 0.5 mg/mL pooled human liver S9 fractions; 10 μM compound; 37° C.; pH 7.4; read-out: Stability in liver S9 fractions, Clint
Experimental: Determination of enzyme stability.
Measuring of candidate enzyme stability enabled estimation of the stability of the compounds towards the action of liver enzymes.
Enzyme degradation rate was measured by incubating the reaction mixture in a dry block thermostat at 37° C., said reaction mixture comprising 0.5 mg/mL of pooled human liver S9 fractions (XenoTech, USA, cat # H0610), 10 μM compound, 2 mM β-nicotinamide adenine dinucleotide (Carbosynth, UK, cat # NN10871) and 4 mM magnesium chloride in 0.1 M sodium-phosphate buffer, pH=7.4. The reaction was quenched with acetonitrile (100 μL of acetonitrile/100 μL of the reaction mixture). After quenching, the samples were centrifuged at 10000 rpm for 10 minutes. Supernatant fluid was tested by chromatographic technique using Agilent1200 (Agilent, USA). We used gradient elution (1 mL/min flow rate). A graph of the logarithm of substance's peak area as a function of time was made. The dependent factor of the line corresponded to the elimination rate constant K based on which the drug's half-life T½ and intrinsic clearance CLint were calculated:
Based on the data obtained, candidate enzyme stability in human liver S9 fractions was determined (see Table 11).

HepG2 cells = assay: General cytotoxicity on HepG2 cells; assay type: cell-based; settings: therapeutic index, CC50 HepG2 / IC50 H1975
Experimental: (§7) The CC50 values were determined in the test for General cytotoxicity on HepG2 cells (rhepatocellular carcinoma, ATCC® HB-8065™) (Table 16). The cells were subcultured in DMEM medium (PanEco, S420p) supplemented with 10% FBS (Gibco, #16140071) for at least 1 passage after thawing, washed with PBS and passaged in 96-well culture plates (3599, Corning) at a concentration of 2*10^4 cells/100 μL per well, and incubated for 16-18 h. The test substances were titrated in DMSO and transferred to DMEM (PanEco, S420p) medium supplemented with 2% FBS, added to the cells and incubated at 37° C. for 72 hours; viability of the cells was then assessed using Alamar Blue dye (ThermoFisher, # DAL1100). CC50 was determined similarly to IC50.
(§8) The ratio between CC50 for HepG2 cell line and IC50 for H1975 cell line is the therapeutic index (TI): […]

[4] = General cytotoxicity on HepG2 cells; assay type: cell-based; settings: human; general cytotoxicity, HepG2 cells, 72 hours, average of several tests
Experimental: as §7, §8

[5] = Chemical stability in human blood plasma; assay type: in vitro ADME; settings: pooled human blood plasma; 10 μm; 4 hours at 37° C.; substance amount remaining
Experimental: 2) Determination of chemical stability in human blood plasma.
Determination of stability in human blood plasma was performed using pooled human blood plasma taken from ten healthy donors. The initial candidate solution (10 mM in DMSO) was diluted with pooled blood plasma to a concentration of 10 μm (test solution). The test solution was incubated in a dry block thermostat for 4 hours at 37° C. HPLC with Agilent 1200 liquid chromatography system (Agilent, USA) was employed to determine peak areas of the compounds in test samples, said peak areas corresponding to the initial test time (prior to incubation) and the final test time (after incubation in a dry block thermostat for 4 hours at 37° C.), proteins were preliminarily precipitated with acetonitrile. We used gradient elution (1 mL/min flow rate). Substance amount in % in a sample after thermostatting was determined.
The stability of the compounds was estimated.

[6] = target: T2, DM EGFR (DoubleMutantEGFR, L828R/T790M) (Homo sapiens, UniProt P00533, L858R/T790M); assay: Inhibition of DM EGFR kinase activity (ADP-Glo); assay type: biochemical; settings: for IC50: inhibition of kinase activity, EGFR DM (L828R/T790M); for SI, IC50(WT)/IC50(DM): selectivity index, kinase EGFR WT vs EGFR DM
T2 construct: purchased SignalChem
Experimental: as §1, §2, §3

[7] = average values obtained in several tests, Table 16, read-out: H1975 (DM) IC50
[8] = antiproliferative test, Table 15, read-out: IC50 H1975 (DM)

IC50 (WT EGFR (Wild-Type EGFR)) | IC50 [1] | IC50 [2, 7] | IC50 [2, 8] | Intrinsic clearance in human liver S9 fractions at 10 µM [3] | Stability in blood plasma, % [5] | IC50 [6] | SI, IC50(WT)/IC50(DM) [6] | Compound | SI IC50(A549)/IC50(DM) [2] | TI, CC50/IC50 (HepG2 cells) | CC50 at 72 h [4]
25.2 nM | 17700 nM | 8.66 nM | 8.66 nM | 14.8 µL/min/mg | 98.2% | 3.14 nM | 8.03 | C=CC(=O)Nc1cc(Nc2nccc(C(=O)c3ccc(N4CCC[C@@H](O)C4)cc3)n2)c(OC)cc1N(C)CCN(C)C [EGFR_3365_109, (R)-N-(2-((2-(dimethylamino)ethyl)(methyl)amino)-5-((4-(4-(3-hydroxypiperidin-1-yl)benzoyl)pyrimidin-2-yl)amino)-4-methoxyphenyl)acrylamide] | 2043 | 5245 | 45400 nM
51.4 nM | 14200 nM | 12.1 nM | 12.1 nM | 16 µL/min/mg | 93.9% | 2.02 nM | 25.37 | C=CC(=O)Nc1cc(Nc2nccc(C(=O)c3ccc(N4CC[C@H](OC)C4)cc3)n2)c(OC)cc1N(C)CCN(C)C [EGFR_3365_114, (S)-N-(2-((2-(dimethylamino)ethyl)(methyl)amino)-4-methoxy-5-((4-(4-(3-methoxypyrrolidin-1-yl)benzoyl)pyrimidin-2-yl)amino)phenyl)acrylamide] | 1175 | 1970 | 23800 nM
126 nM | 12800 nM | 19.1 nM | 19.1 nM | 19.8 µL/min/mg | 94.6% | 1.99 nM | 63.44 | C=CC(=O)Nc1cc(Nc2nccc(C(=O)c3ccc(N4CC[C@@H](OC)C4)cc3)n2)c(OC)cc1N(C)CCN(C)C [EGFR_3365_115, (R)-N-(2-((2-(dimethylamino)ethyl)(methyl)amino)-4-methoxy-5-((4-(4-(3-methoxypyrrolidin-1-yl)benzoyl)pyrimidin-2-yl)amino)phenyl)acrylamide] | 670 | 1154 | 22000 nM
22.6 nM | 12600 nM | 13.2 nM | 13.2 nM | 20.4 µL/min/mg | 96.2% | 2.14 nM | 10.60 | C=CC(=O)Nc1cc(Nc2nccc(C(=O)c3ccc(OC(C)C)cc3OC)n2)c(OC)cc1N(C)CCN(C)C [EGFR_3365_103, N-(2-((2-(dimethylamino)ethyl)(methyl)amino)-5-((4-(4-isopropoxy-2-methoxybenzoyl)pyrimidin-2-yl)amino)-4-methoxyphenyl) acrylamide] | 954 | 2232 | 29400 nM
29.3 nM | 8320 nM | 12.9 nM | 12.9 nM | 21.3 µL/min/mg | 99.2% | 2.54 nM | 11.55 | C=CC(=O)Nc1cc(Nc2nccc(C(=O)c3ccc(OCCC)cc3OC)n2)c(OC)cc1N(C)CCN(C)C [EGFR_3365_101, N-(2-((2-(dimethylamino)ethyl)(methyl)amino)-4-methoxy-5-((4-(2-methoxy-4-propoxybenzoyl)pyrimidin-2-yl)amino)phenyl)acrylamide] | 645 | 1238 | 16000 nM
76.3 nM | 19700 nM | 66.3 nM | 66.3 nM | 22.2 µL/min/mg | 90.7% | 3.57 nM | 21.41 | C=CC(=O)Nc1cc(Nc2nccc(C(=O)c3c(OC)cc(OC)cc3OC)n2)c(OC)cc1N(C)CCN(C)C [EGFR_3365_124, N-(2-((2-(dimethylamino)ethyl)(methyl)amino)-4-methoxy-5-((4-(2,4,6-trimethoxybenzoyl)pyrimidin-2-yl)amino)phenyl)acrylamide] | 298 | >754 | > 50000 nM

Compound | IC50 (WT EGFR (Wild-Type EGFR)) | IC50 [1] | IC50 [2, 7] | IC50 [2, 8] | Intrinsic clearance in human liver S9 fractions at 10 µM [3] | Stability in blood plasma, % [5] | IC50 [6] | SI, IC50(WT)/IC50(DM) [6] | SI IC50(A549)/IC50(DM) [2] | TI, CC50/IC50 (HepG2 cells) | CC50 at 72 h [4]
C=CC(=O)Nc1cc(Nc2nccc(C(=O)c3ccc(N4CC[C@H](O)C4)cc3)n2)c(OC)cc1N(C)CCN(C)C.O=CO [EGFR_3365_112, (S)-N-(2-((2-(dimethylamino)ethyl)(methyl)amino)-5-((4-(4-(3-hydroxypyrrolidin-1-yl)benzoyl)pyrimidin-2-yl)amino)-4-methoxyphenyl)acrylamide formate] | 23.5 nM | 37300 nM | 15.3 nM | 15.3 nM | 6.8 µL/min/mg | 96.9% | 2.05 nM | 11.48 | 2443 | >3267 | > 50000 nM
